Assay results from ChEMBL document CHEMBL1201862, “PubChem BioAssay data set” (2004).
Counter-ions that a name gives are not always drawn. Calls of active or inactive are those of the source.

Columns and labels:
Phospholipase D2 = Phospholipase D2 (Homo sapiens, UniProt O14939); assay: PLD2 inhibitor potency in cells, dose response (AID 602147); assay type: functional;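 note: cellular assay in HEK293 cells overexpressing GFP-tagged PLD2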
Phospholipase D1 = target: T1, Phospholipase D1 (Homo sapiens, UniProt Q13393); assay: PLD1 inhibitor potency in cells, dose response (AID 602151); assay type: functional;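 note: cellular PLD1 assay in Calu-1 cells stimulated with PMA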
T1 sequence (Q13393 whole entry): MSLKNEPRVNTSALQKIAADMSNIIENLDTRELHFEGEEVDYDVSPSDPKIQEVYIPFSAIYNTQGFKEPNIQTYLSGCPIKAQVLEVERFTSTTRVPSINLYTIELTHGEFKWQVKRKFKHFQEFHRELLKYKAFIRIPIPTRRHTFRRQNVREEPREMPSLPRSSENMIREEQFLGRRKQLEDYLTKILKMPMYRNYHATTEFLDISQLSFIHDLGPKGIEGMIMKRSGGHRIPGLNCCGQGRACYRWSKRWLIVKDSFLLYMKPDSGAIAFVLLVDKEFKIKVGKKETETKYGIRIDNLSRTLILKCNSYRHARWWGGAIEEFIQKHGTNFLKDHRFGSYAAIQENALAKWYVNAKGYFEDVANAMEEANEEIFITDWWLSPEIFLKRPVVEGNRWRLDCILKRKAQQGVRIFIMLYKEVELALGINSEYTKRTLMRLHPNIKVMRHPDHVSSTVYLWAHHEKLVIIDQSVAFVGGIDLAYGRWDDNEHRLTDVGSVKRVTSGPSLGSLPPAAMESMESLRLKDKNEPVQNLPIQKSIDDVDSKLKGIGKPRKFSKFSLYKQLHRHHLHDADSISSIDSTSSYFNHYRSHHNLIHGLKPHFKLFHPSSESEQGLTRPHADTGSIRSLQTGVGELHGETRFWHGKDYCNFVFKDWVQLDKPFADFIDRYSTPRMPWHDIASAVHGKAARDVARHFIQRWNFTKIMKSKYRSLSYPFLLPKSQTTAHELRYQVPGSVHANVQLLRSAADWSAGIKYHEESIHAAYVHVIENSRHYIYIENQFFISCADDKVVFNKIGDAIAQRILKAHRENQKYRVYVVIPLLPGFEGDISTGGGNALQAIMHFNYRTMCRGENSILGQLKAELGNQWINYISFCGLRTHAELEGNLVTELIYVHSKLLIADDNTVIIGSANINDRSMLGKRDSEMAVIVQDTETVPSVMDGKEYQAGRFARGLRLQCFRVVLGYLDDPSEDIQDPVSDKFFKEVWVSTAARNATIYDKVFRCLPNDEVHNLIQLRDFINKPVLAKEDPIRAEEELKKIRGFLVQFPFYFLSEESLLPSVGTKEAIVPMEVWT

[1] = test system: Streptococcus sp. 'group A'; assay: growth inhibition of control SK(-) GAS strain, dose response, counter-screen for streptokinase expression inhibitor project, luminescence, kanamycin, BacTiterGlo, confirmation (AID 1900); assay type: functional, organism-based
Streptococcus = assay: Group A Streptococcus viability loss, dose response, counter-screen for streptokinase expression inhibitor project, luminescence, BacTiterGlo (AID 1915); assay type: functional, organism-based;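 note: potency for reduction of bacterial viability or growth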
Vero = Vero cell cytotoxicity, cytotoxicity control for flavivirus capping enzyme inhibitors (AID 588742); assay type: functional; settings: Chlorocebus sabaeus
[2] = NIH-3T3 fibroblast cytotoxicity, dose response, cytotoxicity control, cell-based, fluorescence, Alamar Blue, secondary assay (AID 2327); assay type: functional;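 note: NIH-3T3 mouse fibroblasts cultured with fluconazole at 8 µg/mL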
INS1 = assay: beta cell apoptosis inhibitors, cytokine rescue, dose response, luminescence, retest (AID 449756); assay type: functional, cell-based; settings: Rattus norvegicus;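 note: cell death triggered by IL-1 beta plus TNF-alpha plus IFN-gamma mixture; protective hits raise ATP signal compared with cytokine alone wells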
[3] = C. albicans growth with fluconazole, confirmation, fluorescence, retest (AID 2467); assay type: functional, cell-based
[4] = target: Heat shock protein HSP 90-alpha (Homo sapiens, UniProt P07900); assay type: functional, organism-based
[5] = target: T2, Apoptotic protease-activating factor 1 (Homo sapiens, UniProt O14727); assay type: functional
T2 sequence (O14727 whole entry): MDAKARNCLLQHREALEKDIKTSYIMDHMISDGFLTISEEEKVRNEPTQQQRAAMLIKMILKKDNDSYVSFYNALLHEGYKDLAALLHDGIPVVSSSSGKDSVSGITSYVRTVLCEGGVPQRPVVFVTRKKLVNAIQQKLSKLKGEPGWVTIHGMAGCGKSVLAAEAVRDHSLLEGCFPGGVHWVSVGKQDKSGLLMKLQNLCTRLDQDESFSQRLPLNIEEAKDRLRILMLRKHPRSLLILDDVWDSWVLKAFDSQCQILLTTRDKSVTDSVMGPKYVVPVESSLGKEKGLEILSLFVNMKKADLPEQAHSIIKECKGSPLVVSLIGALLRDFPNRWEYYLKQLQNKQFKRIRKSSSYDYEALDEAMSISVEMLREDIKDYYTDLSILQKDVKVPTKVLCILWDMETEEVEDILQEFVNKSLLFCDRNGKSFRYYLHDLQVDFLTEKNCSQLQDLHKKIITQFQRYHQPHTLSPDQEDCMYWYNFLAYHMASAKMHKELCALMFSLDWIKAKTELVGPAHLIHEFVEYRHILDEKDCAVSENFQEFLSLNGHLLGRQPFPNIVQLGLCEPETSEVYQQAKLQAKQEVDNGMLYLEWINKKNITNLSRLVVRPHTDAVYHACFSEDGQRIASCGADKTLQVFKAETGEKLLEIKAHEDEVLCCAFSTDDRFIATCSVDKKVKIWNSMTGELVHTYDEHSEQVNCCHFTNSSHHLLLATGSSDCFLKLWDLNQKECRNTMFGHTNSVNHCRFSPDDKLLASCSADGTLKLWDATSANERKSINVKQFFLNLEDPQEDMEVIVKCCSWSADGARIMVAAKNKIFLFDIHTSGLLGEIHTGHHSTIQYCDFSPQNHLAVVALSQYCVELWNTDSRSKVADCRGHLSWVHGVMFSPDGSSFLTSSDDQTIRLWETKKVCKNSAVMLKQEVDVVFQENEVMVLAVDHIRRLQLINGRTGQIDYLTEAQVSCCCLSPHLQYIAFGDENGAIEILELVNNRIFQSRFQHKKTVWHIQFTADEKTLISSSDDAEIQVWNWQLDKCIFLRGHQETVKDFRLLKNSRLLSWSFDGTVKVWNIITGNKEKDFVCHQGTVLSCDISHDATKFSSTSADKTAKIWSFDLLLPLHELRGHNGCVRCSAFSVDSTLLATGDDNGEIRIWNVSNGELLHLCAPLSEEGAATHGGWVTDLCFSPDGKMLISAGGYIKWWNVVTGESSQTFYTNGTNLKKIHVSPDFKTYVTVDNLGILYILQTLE

[6] = target: Glucose-6-phosphate 1-dehydrogenase (Homo sapiens, UniProt P11413); assay: human G6PD enzyme inhibitors, dose response, selectivity assay for P. falciparum G6PD inhibitor project, biochemical, fluorescence (AID 504792); assay type: functional
Sequence of Glucose-6-phosphate 1-dehydrogenase (P11413 whole entry): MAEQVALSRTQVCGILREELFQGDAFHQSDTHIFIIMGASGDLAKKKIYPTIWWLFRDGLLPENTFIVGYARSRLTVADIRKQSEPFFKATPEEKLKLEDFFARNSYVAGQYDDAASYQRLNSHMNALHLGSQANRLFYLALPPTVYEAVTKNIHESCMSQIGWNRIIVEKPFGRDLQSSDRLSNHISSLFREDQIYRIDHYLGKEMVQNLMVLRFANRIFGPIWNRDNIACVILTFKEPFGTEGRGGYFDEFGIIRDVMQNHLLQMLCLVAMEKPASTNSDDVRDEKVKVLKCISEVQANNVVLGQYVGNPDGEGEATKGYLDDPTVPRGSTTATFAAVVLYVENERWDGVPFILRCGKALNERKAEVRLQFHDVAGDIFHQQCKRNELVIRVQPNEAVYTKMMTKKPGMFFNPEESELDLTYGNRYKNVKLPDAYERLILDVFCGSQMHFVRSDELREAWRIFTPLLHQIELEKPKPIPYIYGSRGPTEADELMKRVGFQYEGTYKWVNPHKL

Sequence of Phospholipase D2 (O14939 whole entry): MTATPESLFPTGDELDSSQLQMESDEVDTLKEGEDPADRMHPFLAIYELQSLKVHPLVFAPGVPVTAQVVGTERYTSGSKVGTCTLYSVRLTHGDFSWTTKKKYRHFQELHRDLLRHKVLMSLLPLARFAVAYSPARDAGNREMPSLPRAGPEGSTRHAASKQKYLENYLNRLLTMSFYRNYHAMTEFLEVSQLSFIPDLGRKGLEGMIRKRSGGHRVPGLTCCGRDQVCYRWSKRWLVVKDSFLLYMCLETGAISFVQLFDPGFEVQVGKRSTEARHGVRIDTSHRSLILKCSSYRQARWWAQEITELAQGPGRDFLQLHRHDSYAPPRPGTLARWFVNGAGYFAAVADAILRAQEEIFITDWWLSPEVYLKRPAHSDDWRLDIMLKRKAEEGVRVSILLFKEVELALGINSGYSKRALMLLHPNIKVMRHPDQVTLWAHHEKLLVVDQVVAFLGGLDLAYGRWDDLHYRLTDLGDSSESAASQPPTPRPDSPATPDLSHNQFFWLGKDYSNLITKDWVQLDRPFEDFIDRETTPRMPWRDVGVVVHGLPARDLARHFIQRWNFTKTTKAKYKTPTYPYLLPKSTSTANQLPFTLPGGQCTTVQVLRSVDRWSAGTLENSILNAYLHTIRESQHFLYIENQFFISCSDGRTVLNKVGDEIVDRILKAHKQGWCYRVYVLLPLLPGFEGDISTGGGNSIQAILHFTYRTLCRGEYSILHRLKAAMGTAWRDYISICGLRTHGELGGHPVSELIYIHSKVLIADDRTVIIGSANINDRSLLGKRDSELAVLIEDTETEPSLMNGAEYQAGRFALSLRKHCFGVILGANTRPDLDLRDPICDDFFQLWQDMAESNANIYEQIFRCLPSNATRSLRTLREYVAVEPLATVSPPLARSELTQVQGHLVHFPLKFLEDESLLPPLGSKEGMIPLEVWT

In the case of O=C(N[C@@H](Cc1ccccc1)CN1CCC(n2c(=O)[nH]c3ccccc32)CC1)c1cnc2ccccc2c1, the IC50 (Phospholipase D2) is reported as 20 µM (active) and the IC50 (Phospholipase D1) is reported as 2.8 µM (active).
With COc1cccc(N2CCN(CCNC(=O)c3ccc4ccccc4c3)CC2)c1 the IC50 (Phospholipase D2) was 18 µM (active) and the IC50 (Phospholipase D1) was 10 µM (active).
In the case of C[C@@H](CN1CCC(n2c(=O)[nH]c3ccc(F)cc32)CC1)NC(=O)c1ccc(F)c(F)c1, the IC50 (Phospholipase D2) is reported as 0.315 µM (active) and the IC50 (Phospholipase D1) is reported as 0.005 µM (active).
With CC(=O)NC(c1ccccc1)c1cc(Cl)c2cccnc2c1O (stereo not given) the EC50 [1] was 1.73 µM (active), the EC50 (Streptococcus) was 2.71 µM (active) and the CC50 (Vero) was 6.04 µM (active). The EC50 [2] was 4.24 µM (active), the AC50 (INS1) was 1.2 µM (active) and the EC50 [3] was 0.514 µM (active). For the same compound, the AC50 [4] was 3.79 µM (active).
In the case of CCOC(=O)Nc1ccc(NCc2ccc(F)cc2)nc1N [FLUPIRTINE MALEATE], the IC50 [5] is reported as 26.6 µM (active) and the IC50 [6] is reported as 65.4 µM (inactive).
